According to patent US11485735B2, “Selective CDK4/6 inhibitor and preparation thereof” (Wuxi Shuangliang Biotechnology Co., Ltd., priority 2019, dated 2022):
Counter-ions that a name gives are not always drawn.

Columns and labels:
CDK9 = CDK9 (Homo sapiens, UniProt P50750); experiment: In-vitro kinase inhibitory activity, CDK9 (selectivity); format: biochemical; settings: read-out: IC50 (half maximal inhibitory concentration, nM) CDK9
CDK6/CyclinD3 = biological target: T1, CDK6/CyclinD3 (Homo sapiens, UniProt Q00534); experiment: In-vitro kinase inhibitory activity, CDK6/CyclinD3 (Caliper EZ Reader II mobility shift); format: biochemical; settings: CDK6/CyclinD3 20 nM, ATP 2 mM, Peptide 1 μM, 27° C., 120 min; read-out: IC50 (half maximal inhibitory concentration, nM) CDK6
T1 construct: purchased Wuxi Biortus Biosciences Co. Ltd
T1 sequence (Q00534 whole entry, species assumed): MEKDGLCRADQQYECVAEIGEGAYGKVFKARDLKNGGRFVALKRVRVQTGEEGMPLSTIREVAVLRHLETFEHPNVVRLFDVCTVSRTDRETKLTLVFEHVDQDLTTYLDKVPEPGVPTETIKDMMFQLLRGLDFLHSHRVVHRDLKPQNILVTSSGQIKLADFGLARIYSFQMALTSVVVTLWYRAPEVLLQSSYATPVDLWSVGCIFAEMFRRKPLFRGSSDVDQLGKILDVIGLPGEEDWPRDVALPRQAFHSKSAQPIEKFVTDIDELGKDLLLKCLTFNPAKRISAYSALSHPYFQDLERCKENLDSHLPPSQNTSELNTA
T1 sequence (P30281 whole entry partner, species assumed): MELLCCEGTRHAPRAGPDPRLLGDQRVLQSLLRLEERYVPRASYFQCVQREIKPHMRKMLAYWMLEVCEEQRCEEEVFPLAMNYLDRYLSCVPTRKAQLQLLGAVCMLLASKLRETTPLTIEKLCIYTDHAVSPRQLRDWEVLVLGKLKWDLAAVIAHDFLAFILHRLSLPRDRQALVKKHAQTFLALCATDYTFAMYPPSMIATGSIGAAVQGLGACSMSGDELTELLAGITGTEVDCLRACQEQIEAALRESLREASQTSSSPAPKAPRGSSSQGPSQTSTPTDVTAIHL
Method: The final volume for assay was 16 μL, and the reaction temperature was 27° C. […] The compound was dissolved in dimethyl sulfoxide (DMSO) to reach a concentration of 10 mM. […] 2 μL of the test compound solution was mixed with 5 μL of the kinase solution, and the mixture was incubated for 10 min. 5 μL of the mixed solution of the polypeptide substrate and ATP was then added. The mixture was incubated at 27° C. for 120 min, and then the reaction was terminated by adding 4 μL of EDTA with a concentration of 120 mM to each sample. […] Each assay was conducted in at least two replicates.
(§1) The final concentrations of the reagents in the assay were as follows. […] The reaction mixture was analyzed on a Caliper EZ Reader II by electrophoretic separation of the fluorescent substrate and the phosphorylated product. Data were calculated by using GraphPad Prism version 6.0 and IC50 values were obtained by adjusting the non-linear regression models of the dose response curves.

CDK4/CyclinD3 = biological target: T2, CDK4/CyclinD3 (Homo sapiens, UniProt P11802); experiment: In-vitro kinase inhibitory activity, CDK4/CyclinD3 (Caliper EZ Reader II mobility shift); format: biochemical; settings: CDK4/CyclinD3 20 nM, ATP 2 mM, Peptide 1 μM, 27° C., 180 min; read-out: IC50 (half maximal inhibitory concentration, nM) CDK4
T2 construct: purchased Wuxi Biortus Biosciences Co. Ltd
T2 sequence (P11802 whole entry, species assumed): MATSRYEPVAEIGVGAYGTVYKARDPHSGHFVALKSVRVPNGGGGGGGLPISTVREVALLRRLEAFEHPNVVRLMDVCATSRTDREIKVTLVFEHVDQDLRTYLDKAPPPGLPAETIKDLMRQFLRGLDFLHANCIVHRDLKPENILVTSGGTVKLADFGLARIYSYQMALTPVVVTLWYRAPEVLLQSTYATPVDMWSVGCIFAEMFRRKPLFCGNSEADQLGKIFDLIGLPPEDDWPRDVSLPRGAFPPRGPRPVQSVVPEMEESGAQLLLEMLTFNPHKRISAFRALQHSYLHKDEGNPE
T2 sequence (P30281 whole entry partner, species assumed): as the sequence (P30281 whole entry partner, species assumed) above
Method: The final volume for assay was 16 μL, and the reaction temperature was 27° C. CDK4/CyclinD3 was produced by Wuxi Biortus Biosciences Co. Ltd. The concentration of the kinase was determined by the results of the optimization experiment. The kinase was diluted with an assay buffer (50 mM Tris HCl pH 8.0, 0.01% Tween 20, 50 μg/mL BSA, and 5 mM MgCl2) to obtain a corresponding kinase solution (2.4× concentration). The compound was dissolved in dimethyl sulfoxide (DMSO) to reach a concentration of 10 mM. […] 2 μL of the test compound solution was mixed with 5 μL of the kinase solution, and the mixture was incubated for 10 min. 5 μL of the mixed solution of the polypeptide substrate and ATP was then added. The mixture was incubated at 27° C. for 180 min, and then the reaction was terminated by adding 4 μL of EDTA with a concentration of 120 mM to each sample. […] Each assay was conducted in at least two replicates.
as §1

[1] = test system: human breast cancer MCF-7 cells; experiment: Growth inhibition of tumor cells cultured in vitro, CellTiter-Glo, MCF-7; format: cell-based
Source text: (§2) Test drugs: Compounds of the present disclosure. Tumor cell strains: human colon cancer COLO205 cells and human breast cancer MCF-7 cells.
(§3) The growth inhibitory effects on human tumor cells COLO205 and MCF-7 cultured in vitro were observed by using a CellTiter-Glo Luminescent Cell Viability Assay Kit (Promega, Cat. No. G7572). Human tumor cells COLO205 and MCF-7 were both purchased from the American Type Culture Collection.
(§4) CellTiter-Glo Luminescent Cell Viability Assay: The previous cell culture medium was discarded, and the tumor cells were rinsed twice with PBS. An appropriate amount of trypsin (VWR, Cat. No. 0458-25G) was added to digest the tumor cells until most of the cells turned round and were detached from the wall. The trypsin digestion was terminated by adding an RPMI-1640 medium (COLO205; Gibco, Cat. No. A10491-01) containing 10% fetal bovine serum (Hyclone, Cat. No. SV30160.03) and MEM medium (MCF-7; Gibco, Cat. No. 10370-021) containing 10% fetal bovine serum and 0.01 mg/mL insulin, and the cells were gently pipetted with a pipette to completely suspend the tumor cells. After cell counting, a tumor cell suspension was prepared using a complete culture medium and the final concentration was 6.7×10^4 cells/mL. 90 μL of the tumor cell suspension was seeded in each well of a 96-well culture plate (6000 cells/well). The plate was then placed in an incubator with 5% CO2 at 37° C. and incubated for 24 h. A test drug was added by using an Agilent Bravo Automated Liquid Handling Platform, and 10 μL of the sample was added in each well. The assay was conducted in triplicate for each group. A compound of the present disclosure was dissolved in DMSO (BioRoYee, Cat. No. AF0231), and then the resulting solution was diluted to 10 μM/L, 3.33 μM/L, 1.11 μM/L, 0.37 μM/L, 0.123 μM/L, 0.041 μM/L, 0.0137 μM/L, 0.0046 μM/L, and 0.0015 μM/L with the culture medium. The concentration of DMSO was lower than 0.1%, and a culture medium containing 0.1% DMSO was added to the well which was set as a vehicle control group. The 96-well plate was placed in an incubator with 5% CO2 at 37° C. and incubated for 72 h. The 96-well plate to be tested was equilibrated at room temperature for 30 min, and 100 μL of Cell Titer-Glo reagent was added to each well. The contents of each well were mixed in an orbital shaker for 2 min to induce cell lysis, and the plate was incubated at room temperature for 10 min to achieve a constant value of fluorescent intensity. Finally, the chemiluminescence intensity was detected by TECAN M1000. Data were processed with Graphpad Prism 6.0 software. The growth curve of the cells was plotted. The cell growth inhibition rate of a drug was calculated, and the half maximal inhibitory concentration (IC50) of the drug was determined.

[2] = test system: human colon cancer COLO205 cells; experiment: Growth inhibition of tumor cells cultured in vitro, CellTiter-Glo, COLO205; format: cell-based; settings: Homo sapiens, COLO 205, 72 h, COLO205, 72 h, CellTiter-Glo
Source text: as §2, §3, §4

CDK9, sequence (P50750 whole entry, species assumed): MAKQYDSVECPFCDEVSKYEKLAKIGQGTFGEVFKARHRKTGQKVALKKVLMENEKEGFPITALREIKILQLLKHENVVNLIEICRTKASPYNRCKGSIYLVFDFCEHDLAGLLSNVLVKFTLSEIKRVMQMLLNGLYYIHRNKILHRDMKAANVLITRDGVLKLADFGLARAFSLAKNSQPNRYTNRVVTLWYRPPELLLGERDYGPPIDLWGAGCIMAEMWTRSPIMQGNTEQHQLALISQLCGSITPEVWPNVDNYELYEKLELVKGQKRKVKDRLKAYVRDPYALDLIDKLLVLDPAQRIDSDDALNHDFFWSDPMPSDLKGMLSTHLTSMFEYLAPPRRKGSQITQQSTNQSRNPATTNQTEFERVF
CDK9, sequence (O60563 whole entry partner, species assumed): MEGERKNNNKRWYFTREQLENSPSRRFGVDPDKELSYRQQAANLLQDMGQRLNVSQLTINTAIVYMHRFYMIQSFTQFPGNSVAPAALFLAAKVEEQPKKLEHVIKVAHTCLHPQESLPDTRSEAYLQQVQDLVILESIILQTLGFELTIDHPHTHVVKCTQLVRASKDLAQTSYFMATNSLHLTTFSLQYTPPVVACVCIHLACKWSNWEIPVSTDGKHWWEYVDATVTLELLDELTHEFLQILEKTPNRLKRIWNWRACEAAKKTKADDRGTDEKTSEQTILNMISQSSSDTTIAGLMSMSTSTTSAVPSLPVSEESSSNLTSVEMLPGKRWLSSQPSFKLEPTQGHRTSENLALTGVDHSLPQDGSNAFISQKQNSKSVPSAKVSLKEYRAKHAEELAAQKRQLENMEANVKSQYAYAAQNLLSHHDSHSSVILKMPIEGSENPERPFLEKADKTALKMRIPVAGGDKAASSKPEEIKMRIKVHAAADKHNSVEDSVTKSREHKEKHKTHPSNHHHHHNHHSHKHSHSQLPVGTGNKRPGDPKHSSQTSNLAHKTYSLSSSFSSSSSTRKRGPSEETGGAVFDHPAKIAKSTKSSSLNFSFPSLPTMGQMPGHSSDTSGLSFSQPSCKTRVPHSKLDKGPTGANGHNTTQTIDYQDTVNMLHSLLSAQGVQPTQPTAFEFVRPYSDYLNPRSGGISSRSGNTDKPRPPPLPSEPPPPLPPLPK

IC50 (CDK9) [nM] | IC50 (CDK6/CyclinD3) [nM] | IC50 (CDK4/CyclinD3) [nM] | IC50 ([1]; MCF-7, 72 h, CellTiter-Glo, dihydrochloride) [nM] | IC50 [2] [nM] | Structure (SMILES) | inhibitory effect on human breast cancer MCF-7 cells (in words) ([1]; summary of the table)
3950 | 37.1 | 53.2 |  |  | CC(=O)c1c(C)c2cnc(Nc3ccc(N4CCN(CCN5CCN(c6ccc7c(c6Cl)CN(C6CCC(=O)NC6=O)C7=O)CC5)CC4)cn3)nc2n(C2CCCC2)c1=O (centres unmarked) [Compound 21, 3-(5-(4-(2-(4-(6-((6-acetyl-8-cyclopentyl-5-methyl-7-oxo-7,8-dihydropyrido[2,3-d]pyrimidin-2-yl)amino)pyridin-3-yl)piperazin-1-yl)ethyl)piperazin-1-yl)-4-chloro-1-oxoisoindolin-2-yl)piperidine-2,6-dione dihydrochloride] | 
4580 | 22.1 | 48.8 | 13.5 |  | CC(=O)c1c(C)c2cnc(Nc3ccc(N4CCN(CCN5CCN(c6c(F)cc7c(c6F)CN(C6CCC(=O)NC6=O)C7=O)CC5)CC4)cn3)nc2n(C2CCCC2)c1=O.Cl.Cl (centres unmarked) [Compound 23, 3-(5-(4-(2-(4-(6-((6-acetyl-8-cyclopentyl-5-methyl-7-oxo-7,8-dihydropyrido[2,3-d]pyrimidin-2-yl)amino)pyridin-3-yl)piperazin-1-yl)ethyl)piperazin-1-yl)-4,6-difluoro-1-oxoisoindolin-2-yl) piperidine-2,6-dione dihydrochloride] | relatively good inhibitory effects
> 10000 | 26.6 | 71.1 |  | 59.4 | CC(=O)c1c(C)c2cnc(Nc3ccc(N4CCN(CCC5CCN(c6ccc7c(c6)CN(C6CCC(=O)NC6=O)C7=O)CC5)CC4)cn3)nc2n(C2CCCC2)c1=O (centres unmarked) [Compound 13, 3-(5-(4-(2-(4-(6-((6-acetyl-8-cyclopentyl-5-methyl-7-oxo-7,8-dihydropyrido[2,3-d]pyrimidin-2-yl)amino)pyridin-3-yl)piperazin-1-yl)ethyl)piperidin-1-yl)-1-oxoisoindolin-2-yl)piperidine-2,6-dione] | 
6810 | 23.3 | 55 |  | 50.9 | CC(=O)c1c(C)c2cnc(Nc3ccc(N4CCN(CCN5CCC(CC6CCN(c7ccc8c(c7Cl)CN([C@H]7CCC(=O)NC7=O)C8=O)CC6)CC5)CC4)cn3)nc2n(C2CCCC2)c1=O [Compound 40, (S)-3-(5-(4-((1-(2-(4-(6-((6-acetyl-8-cyclopentyl-5-methyl-7-oxo-7,8-dihydropyrido[2,3-d]pyrimidin-2-yl)amino)pyridin-3-yl)piperazin-1-yl)ethyl)piperidin-4-yl)methyl)piperidin-1-yl)-4-chloro-1-oxoisoindolin-2-yl)piperidine-2,6-dione dihydrochloride] | 
> 10000 | 19.2 | 33.3 |  | 194 | CC(=O)c1c(C)c2cnc(Nc3ccc(N4CCC(CCN5CCC(CC6CCN(c7ccc8c(c7)CN(C7CCC(=O)NC7=O)C8=O)CC6)CC5)CC4)cn3)nc2n(C2CCCC2)c1=O (centres unmarked) [Compound 42, 3-(5-(4-((1-(2-(1-(6-((6-acetyl-8-cyclopentyl-5-methyl-7-oxo-7,8-dihydropyrido[2,3-d]pyrimidin-2-yl)amino)pyridin-3-yl)piperidin-4-yl)ethyl)piperidin-4-yl)methyl)piperidin-1-yl)-1-oxoisoindolin-2-yl)piperidine-2,6-dione hydrochloride] | 
> 10000 | 29.6 | 67.1 |  |  | COc1cc(N2CCN(CCN3CCN(c4ccc(Nc5ncc6c(C)c(C(C)=O)c(=O)n(C7CCCC7)c6n5)nc4)CC3)CC2)cc2c1C(=O)N(C1CCC(=O)NC1=O)C2 (centres unmarked) [Compound 17, 3-(5-(4-(2-(4-(6-((6-acetyl-8-cyclopentyl-5-methyl-7-oxo-7,8-dihydropyrido[2,3-d]pyrimidin-2-yl)amino)pyridin-3-yl)piperazin-1-yl)ethyl)piperazin-1-yl)-7-methoxy-1-oxoisoindolin-2-yl)piperidine-2,6-dione dihydrochloride] | 
1480 | 4.44 | 12.7 |  | 95.9 | CC(=O)c1c(C)c2cnc(Nc3ccc(N4CCN(CCN5CCC(CN6CCN(c7ccc8c(c7Cl)CN(C7CCC(=O)NC7=O)C8=O)CC6)CC5)CC4)cn3)nc2n(C2CCCC2)c1=O (centres unmarked) [Compound 36, 3-(5-(4-((1-(2-(4-(6-((6-acetyl-8-cyclopentyl-5-methyl-7-oxo-7,8-dihydropyrido[2,3-d]pyrimidin-2-yl)amino)pyridin-3-yl)piperazin-1-yl)ethyl)piperidin-4-yl)methyl)piperazin-1-yl)-4-chloro-1-oxoisoindolin-2-yl)piperidine-2,6-dione trihydrochloride] | 
4000 | 55.2 | 38.4 |  |  | CN(C)C(=O)c1cc2cnc(Nc3ccc(N4CCN(CCN5CCC(CN6CCN(c7ccc8c(c7)CN(C7CCC(=O)NC7=O)C8=O)CC6)CC5)CC4)cn3)nc2n1C1CCCC1 (centres unmarked) [Compound 26, 7-cyclopentyl-2-((5-(4-(2-(4-((4-(2-(2,6-dioxopiperidin-3-yl)-1-oxoisoindolin-5-yl)piperazin-1-yl)methyl)piperidin-1-yl)ethyl)piperazin-1-yl)pyridin-2-yl)amino)-N,N-dimethyl-7H-pyrrolo[2,3-d]pyrimidin-6-amide trihydrochloride] | 
5760 | 11.3 | 56.1 |  | 440 | CC(=O)c1c(C)c2cnc(Nc3ccc(N4CCN(CCN5CCC(CC6CCN(c7ccc8c(c7Cl)CN(C7CCC(=O)NC7=O)C8=O)CC6)CC5)CC4)cn3)nc2n(C2CCCC2)c1=O (centres unmarked) [Compound 39, 3-(5-(4-((1-(2-(4-(6-((6-acetyl-8-cyclopentyl-5-methyl-7-oxo-7,8-dihydropyrido[2,3-d]pyrimidin-2-yl)amino)pyridin-3-yl)piperazin-1-yl)ethyl)piperidin-4-yl)methyl)piperidin-1-yl)-4-chloro-1-oxoisoindolin-2-yl)piperidine-2,6-dione dihydrochloride] | 
1400 | 6.73 | 8.88 |  | 76.2 | CC(=O)c1c(C)c2cnc(Nc3ccc(N4CCN(CCN5CCC(CC6CCN(c7ccc8c(c7)CN([C@H]7CCC(=O)NC7=O)C8=O)CC6)CC5)CC4)cn3)nc2n(C2CCCC2)c1=O [Compound 38, (S)-3-(5-(4-((1-(2-(4-(6-((6-acetyl-8-cyclopentyl-5-methyl-7-oxo-7,8-dihydropyrido[2,3-d]pyrimidin-2-yl)amino)pyridin-3-yl)piperazin-1-yl)ethyl)piperidin-4-yl)methyl)piperidin-1-yl)-1-oxoisoindolin-2-yl)piperidine-2,6-dione dihydrochloride] | 
